A value given as a limit tells only on which side of the number the result lay.

One assay addresses SYK kinase (Homo sapiens, UniProt P43405). Put plainly: SYK kinase assay (HTRF KinEASE-TK). The settings on record: class symbols, read-out: Syk inhibition IC50. The format is biochemical. The procedure: A homogeneous time-resolved fluorescence (HTRF) assay was performed to assess the potential inhibitory effect of compounds on SYK kinase. The HTRF KinEASE-TK kit (Cisbio) was used. During the step, kinase will phosphorylate the substrate, and the resulting fluorescence signal is proportional to the phosphorylation level. The assay was performed in the following steps: First, the testing compounds were diluted 1:3 in succession in DMSO. The 1× kinase buffer contained 1 volume of 5× enzymatic buffer with 4 volumes of distilled water, 5 mM MgCl2, 1 mM MnCl2, and 1 mM DTT. The assays were assembled in 384 well plates (784075, Greiner) where 10 nl of compound solutions were added into each well, and the plates were centrifuged at 1000 g for 1 min. Then, 5 μl of 2×SYK in 1× kinase buffer were added to each well. The plates were centrifuged at 1000 g for 30 s and then incubated at room temperature for 10 min. The reaction was initiated by adding […] of premixed 2×TK-substrate-biotin and ATP mixture in 1× kinase buffer to the assay plates. The plates were centrifuged at 1000 g for 30 s and incubated at room temperature for 30 min. Phosphorylation was detected by adding 5 μl of 4×Sa-XL 665 in HTRF detection buffer into each well of the assay plates. The plates were centrifuged plates at 1000 g for 30 sec, and then incubated at room temperature for 1 h. Finally, the plates were read on an Envision 2104 plate reader (PerkinElmer) and the fluorescence signal was measured at 615 nm (Cryptate) and 665 nm (XL665).
A ratio (665/615 nm) was calculated for each well. The inhibition ratio was calculated as follow: […]
IC50 was calculated by fitting % Inhibition values and log of compound concentrations to nonlinear regression (dose response−variable slope) with GraphPad 6.0.
(In general: Time-resolved FRET reads energy transfer from a long-lived donor to a nearby acceptor.)

The target of the next assay is T1, Ba/F3-TEL-SYK cells (Homo sapiens, UniProt P43405).
T1 construct: fused on or other part: N-terminal part of TEL (ETV6) with its oligomerising PNT/SAM domain, fused before the SYK part that carries the kinase domain; P41212 (Transcription factor ETV6)
Put plainly: Ba/F3-TEL-SYK cell-based assay (CellTiter-Glo proliferation). The settings on record: 72 hr, read-out: BaF3 Cell assay IC50. The procedure: CellTiter-Glo® Luminescent Cell Viability Assay was used to determine the number of viable cells in culture based on quantitation of the ATP present, as an indicator of metabolically active cells. The assay was performed in the following steps: First, the testing compounds were dissolved in DMSO to make a stock solution. The stocks (10 mM) were then diluted to varying concentrations: […], 0.305 and 0.102 μM. An aliquot of 0.2 μl of diluted compounds were added to the 384 well assay plate. Second, added 40 μl of cell suspension with 800 Ba/F3-TEL-SYK cells into each well and incubated the plate at 37° C., 5% CO2 for 72 hr. Then, added 20 μl Cell Titer-Glo Reagent into each well of the cell culture plate. Mixed the contents for 2 min on an orbital shaker to lyse cells, and rest the plate at room temperature for 30 min. Finally, luminescence values were obtained using an Envision 2104 plate reader (PerkinElmer) and calculated the average data and Standard Deviation (SD) of DMSO and Reference (GS-9973, 1 μM) as high control and low control. To determine the IC50 value, fit the data using non-linear regression equation.
On the technique in general: In ATP-based viability assays light output follows the ATP content of the culture.

What is called IC50 is the midpoint of a concentration-inhibition curve. With `O=C1COc2cc(-c3cn4ncnc4c(Nc4ccc(N5CCOCC5)cc4)n3)ccc2N1` [I29, 7-(8-((4-morpholinophenyl)amino)-[1,2,4]triazolo[1,5-a]pyrazin-6-yl)-2H-benzo[b][1,4]oxazin-3(4H)-one], on SYK kinase, the concentration for half-maximal inhibition (IC50) is no more than 50 nM. Moreover, on Ba/F3-TEL-SYK cells, the GI50 was 50 to 500 nM.

Take `Nc1cncc(-c2cn3ncnc3c(Nc3ccc(N4CCN(C5COC5)CC4)cc3)n2)n1` [I55, 6-(6-aminopyrazin-2-yl)-N-(4-(4-(oxetan-3-yl)piperazin-1-yl)phenyl)-[1,2,4]triazolo[1,5-a]pyrazin-8-amine]: at SYK kinase, the IC50 was no more than 50 nM. In addition, on Ba/F3-TEL-SYK cells, the GI50 fell in the range of 500 to 5000 nM.

For the compound `COc1cc(Nc2nc(-c3cncc(N)n3)cn3ncnc23)ccc1N1CCN(C2COC2)CC1` [I56, 6-(6-aminopyrazin-2-yl)-N-(3-methoxy-4-(4-(oxetan-3-yl)piperazin-1-yl)phenyl)-[1,2,4]triazolo[1,5-a]pyrazin-8-amine], the IC50 at SYK kinase was 50 to 500 nM. Moreover, the GI50 at Ba/F3-TEL-SYK cells lay within 500 to 5000 nM.

For the compound `c1nc2c(Nc3ccc(N4CC5(COC5)C4)cc3)nc(-c3ccc4cn[nH]c4c3)cn2n1` [I59, N-(4-(2-oxa-6-azaspiro[3.3]heptan-6-yl)phenyl)-6-(1H-indazol-6-yl)-[1,2,4]triazolo[1,5-a]pyrazin-8-amine], the IC50 at SYK kinase fell in the range of 50 to 500 nM. On Ba/F3-TEL-SYK cells, the GI50 is 50 to 500 nM.

In the case of `COc1cc(Nc2nc(-c3ccc4cn[nH]c4c3)cn3ncnc23)ccc1N1CC2(COC2)C1` [I60, 6-(1H-indazol-6-yl)-N-(3-methoxy-4-(2-oxa-6-azaspiro[3.3]heptan-6-yl)phenyl)-[1,2,4]triazolo[1,5-a]pyrazin-8-amine], the 50% inhibitory concentration (IC50) at SYK kinase was in the range of 50 to 500 nM. Besides, the GI50 at Ba/F3-TEL-SYK cells lay within 50 to 500 nM.

In the case of `c1nc2c(Nc3ccc(N4CC5(COC5)C4)cc3)nc(-c3ccc4cc[nH]c4c3)cn2n1` [I61, N-(4-(2-oxa-6-azaspiro[3.3]heptan-6-yl)phenyl)-6-(1H-indol-6-yl)-[1,2,4]triazolo[1,5-a]pyrazin-8-amine], on SYK kinase, the IC50 was no more than 50 nM. Further, the GI50 on Ba/F3-TEL-SYK cells lay in the range of 50 to 500 nM.

For the compound `COc1cc(Nc2nc(-c3ccc4c(c3)N=CC4)cn3ncnc23)ccc1N1CC2(COC2)C1` [I62, 6-(3H-indol-6-yl)-N-(3-methoxy-4-(2-oxa-6-azaspiro[3.3]heptan-6-yl)phenyl)-[1,2,4]triazolo[1,5-a]pyrazin-8-amine], the IC50 at SYK kinase was no more than 50 nM. The GI50 on Ba/F3-TEL-SYK cells was in the range of 50 to 500 nM.

Consider `CC(C)N1C[C@@H]2C[C@@H]1CN2c1ccc(Nc2nc(-c3ccc4[nH]ncc4c3)cn3ncnc23)cc1` [I69, 6-(1H-indazol-5-yl)-N-(4-((1S,4R)-5-isopropyl-2,5-diazabicyclo[2.2.1]heptan-2-yl)phenyl)-[1,2,4]triazolo[1,5-a]pyrazin-8-amine], for which, on SYK kinase, the IC50 lay within 50 to 500 nM. Also, at Ba/F3-TEL-SYK cells, the GI50 lay within 500 to 5000 nM.

As for `CC(C)N1C[C@@H]2C[C@@H]1CN2c1ccc(Nc2nc(-c3ccc4[nH]ccc4c3)cn3ncnc23)cc1` [I70, 6-(1H-indol-5-yl)-N-(4-((1S,4R)-5-isopropyl-2,5-diazabicyclo[2.2.1]heptan-2-yl)phenyl)-[1,2,4]triazolo[1,5-a]pyrazin-8-amine], at SYK kinase, the IC50 is 50 to 500 nM. Moreover, the GI50 at Ba/F3-TEL-SYK cells was in the range of 500 to 5000 nM.

Take `CCOc1cc(Nc2nc(-c3ccc4cn[nH]c4c3)cn3ncnc23)ccc1N1CCOCC1` [I73, N-(3-ethoxy-4-morpholinophenyl)-6-(1H-indazol-6-yl)-[1,2,4]triazolo[1,5-a]pyrazin-8-amine]: the IC50 on SYK kinase is no more than 50 nM. Besides, on Ba/F3-TEL-SYK cells, the GI50 is 50 to 500 nM.

For the compound `CC(C)Oc1cc(Nc2nc(-c3ccc4cn[nH]c4c3)cn3ncnc23)ccc1N1CCOCC1` [I75, 6-(1H-indazol-6-yl)-N-(3-isopropoxy-4-morpholinophenyl)-[1,2,4]triazolo[1,5-a]pyrazin-8-amine], the IC50 on SYK kinase is 50 to 500 nM. Also, the GI50 on Ba/F3-TEL-SYK cells lay in the range of 500 to 5000 nM.

As to `COc1cc(Nc2nc(-c3ccc4cc[nH]c4c3)cn3ncnc23)ccc1N1CC2CC1CN2C1COC1` (stereo not drawn) [I76, 6-(1H-indol-6-yl)-N-(3-methoxy-4-(5-(oxetan-3-yl)-2,5-diazabicyclo[2.2.1]heptan-2-yl)phenyl)-[1,2,4]triazolo[1,5-a]pyrazin-8-amine], on SYK kinase, the half-maximal inhibitory concentration (IC50) is no more than 50 nM. Further, the GI50 on Ba/F3-TEL-SYK cells is 50 to 500 nM.

Source of the values: patent US12577248B2, “Substituted [1,2,4]triazolo[1,5-a]pyrazines as spleen tyrosine kinase inhibitors” (NANJING RUIJIE PHARMA CO., LTD., priority 2020, dated 2026).
